Patent US6153587A, “Conformationally constrained LH-RH analogues, their uses and pharmaceutical compositions containing them” (Laboratoire THERAMEX, priority 1996, dated 2000)
pKi: −log10 of the molar value. Several values for one entry are separate records, joined by “and”; a condition that tells them apart may be missing. Equal values may be shown once. Read-outs that look alike come from different tables or passages of the source. Where a SMILES comes first, the peptide text is derived from it. [ ]: non-standard residue; d: D form. The star is where a group is joined. dPhe(4-Cl) = N[C@H](Cc1ccc(Cl)cc1)C(=O)O; d2Nal = N[C@H](Cc1ccc2ccccc2c1)C(=O)O; Lys(iPr) = CC(C)NCCCC[C@H](N)C(=O)O; d3Pal = N[C@H](Cc1cccnc1)C(=O)O; Nicotinoyl = O=C(c1cccnc1)*

Tests used:
[1] = target: T1, LH-RH receptors (Rattus norvegicus, UniProt P30969); assay: Induction of ovulation in pentobarbital-blocked female Wistar rats; type: in vivo; conditions: subcutaneous
T1 construct: from tissue; host or cells: rat pituitary membrane fraction (female Sprague Dawley)
T1 sequence (P30969 1-327): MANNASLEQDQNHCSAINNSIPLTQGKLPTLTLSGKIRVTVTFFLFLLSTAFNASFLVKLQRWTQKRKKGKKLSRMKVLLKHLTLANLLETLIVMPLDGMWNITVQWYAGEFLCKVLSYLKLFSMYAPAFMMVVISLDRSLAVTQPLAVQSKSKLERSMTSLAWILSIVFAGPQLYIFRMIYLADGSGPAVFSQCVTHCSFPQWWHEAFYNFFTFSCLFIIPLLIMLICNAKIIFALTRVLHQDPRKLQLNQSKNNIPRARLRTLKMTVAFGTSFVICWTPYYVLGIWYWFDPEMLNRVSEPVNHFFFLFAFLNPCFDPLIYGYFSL
Description: (§1) The peptides according to the general formula (IIa) exert an agonist activity upon the LH-RH receptors in vivo, resulting in the induction of ovulation in the female and in the stimulation of testosterone secretion in the male following acute subcutaneous administration.
Adult female Wistar rats are first monitored for normal estrous cyclicity by daily vaginal smears. After at least 2 regular 4-day cycles, they all receive an intraperitoneal injection of 50 mg/kg of sodium pentobarbital around 2:00 PM on the day of proestrus, which blocks the spontaneous ovulation in the negative control animals receiving in addition only the subcutaneous vehicle (PBS: phosphate buffered saline, 0.05 M, pH 7.4 containing 0.1% bovine serum albumin). At the same time, test animals are injected subcutaneously with LH-RH, standard LH-RH agonists or examples according to the formula (Ha), at various doses in solution in the vehicle described above. The following morning, the oviducts are excised and carefully dissected to search for ovocytes. None are found in the negative pentobarbital-blocked animals.
If effective, LH-RH agonists induce ovulation during the night between proestrus and estrus. The percentage of ovulating female rats, defined by the presence of at least one ovocyte in one of the two oviducts, is plotted as a function of the injected dose.

[2] = target: T1, LH-RH receptors; assay: Total plasma testosterone in male Sprague-Dawley rats after subcutaneous injection; type: in vivo; conditions: 30 nanograms/kg subcutaneous; for Total testosterone: plasma at two hours, male Sprague-Dawley rats
Description: as §1
Adult male Sprague-Dawley rats are treated by a subcutaneous injection of LH-RH agonists at the same dose of 30 nanograms/kg dissolved in PBS. Two hours later, blood samples are drawn for total plasma testosterone measurement by direct radioimmunoassay (Immunotech). At this dose, LH-RH itself is not active standard LH-RH agonists and selected examples according to formula (Ila) are compared in Table 3 below: […]

[3] = target: T1, LH-RH receptors; assay: Affinity for LH-RH receptors: [125I]-buserelin binding to rat pituitary membranes; conditions: for Ki / pKi: 2 hours at 4° C., Ki from IC50 by Cheng-Prusoff; for Ki: 20 to 70 μM [125I]-buserelin, read-out: pKi (affinity for LH-RH receptors) (converted); for IC50 range in words / pKi: [125I]-buserelin; for pKi: pKi (affinity for LH-RH receptors)
Description: This affinity has been determined according to the following method:
Pituitaries from female Sprague Dawley rats were removed and homogenized with a Potter homogenizer in a 25 mM HEPES buffer (pH 7.4) containing 0.32 M sucrose, 100 μg/l PMSF (phenylmethylsulfonylfluoride), 5.6 U/l aprotinin and 10,000 U/l bacitracin. The homogenates were centrifuged at 700 g for 10 minutes and the supernatants were further centrifuged at 12,500 g for 30 minutes. The pellets were homogenized and centrifuged as described above, in the same buffer but without sucrose.
All homogenization, centrifugation and subsequent incubation steps were carried out at 4° C.
The assay was terminated by filtration under suction (Brandel 96-well harvester) through Whatman GF/B glass fiber filters. […] Each compound was tested in at least 4 experiments.
Specific binding data were analysed according to Scatchard's method.
For each test compound, the inhibitory constant (Ki) was calculated from its IC50 according to the Cheng and Prussofs equation: Ki=IC50 /(1+[radioligand]/Kd). Ki was then transformed into pKi (=-log Ki) for final expression of affinity scales.

[4] = target: T1, LH-RH receptors; assay: Inhibition of ovulation in female Wistar rats; type: in vivo
Description: The peptides according to the general formula (IIb) exert an antagonist activity upon the LH-RH receptors in vivo, resulting in the inhibition of ovulation in the female.
Adult female Wistar rats are first monitored for normal estrous cyclicity by daily vaginal smears. After at least 2 regular 4-day cycles, they received by subcutaneous injection either the vehicle alone (0.5 ml of a mixture of propylene-glycol and water: 20/80 vol/vol), or the LH-RH antagonist according to the formula (IIb) dissolved in this vehicle, around 2:00 PM on the day of proestrus.
If effective, LH-RH antagonists totally block ovulation. […] The 50% inhibitory dose of antide is slightly lower than 1 μg/rat.

SMILES | ED50 (dose producing 50% of ovulation) [1] | Ki [3] | IC50 range in words [3] | Total testosterone [2] | further results
CCNC(=O)[C@@H]1CCCN1C(=O)[C@H](CCCNC(=N)N)NC(=O)[C@H](CC(C)C)NC(=O)[C@@H](COC(C)(C)C)NC(=O)[C@H](Cc1ccc(O)cc1)NC(=O)[C@H](CO)NC(=O)[C@H](Cc1c[nH]c2ccccc12)NC(=O)[C@H](Cc1cnc[nH]1)NC(=O)[C@@H]1CCC(=O)N1 [Buserelin] |  |  | subnanomolar range | 15.4 ± 0.71 ng/mL | pKi [3]: > 9.00 and 9.37
CC(C)C[C@H](NC(=O)[C@@H](COC(C)(C)C)NC(=O)[C@H](Cc1ccc(O)cc1)NC(=O)[C@H](CO)NC(=O)[C@H](Cc1c[nH]c2ccccc12)NC(=O)[C@H](Cc1cnc[nH]1)NC(=O)[C@@H]1CCC(=O)N1)C(=O)N[C@@H](CCCNC(=N)N)C(=O)N1CCC[C@H]1C(=O)NNC(N)=O [Goserelin] | 4.3 nanograms/rat |  |  | 15.0 ± 2.5 ng/mL | pKi [3]: 8.58
CCNC(=O)[C@@H]1CCCN1C(=O)[C@H](CCCN=C(N)N)NC(=O)[C@H](CC(C)C)NC(=O)[C@@H](Cc1c[nH]c2ccccc12)NC(=O)[C@H](Cc1ccc(O)cc1)NC(=O)[C@H](CO)NC(=O)[C@H](Cc1c[nH]c2ccccc12)NC(=O)[C@H](Cc1cnc[nH]1)NC(=O)[C@@H]1CCC(=O)N1 [Deslorelin] | 4.8 nanograms/rat | < 1 nM and 0.126 nM | subnanomolar range |  | 
CC(=O)N[C@H](Cc1ccc2ccccc2c1)C(=O)N[C@H](Cc1ccc(Cl)cc1)C(=O)N[C@H](Cc1cccnc1)C(=O)N[C@@H](CO)C(=O)N[C@@H](CCCCNC(=O)c1cccnc1)C(=O)N[C@H](CCCCNC(=O)c1cccnc1)C(=O)N[C@@H](CC(C)C)C(=O)N[C@@H](CCCCNC(C)C)C(=O)N1CCC[C@H]1C(=O)N[C@H](C)C(N)=O [Antide] (Ac-[d2Nal][dPhe(4-Cl)][d3Pal]SK(Nicotinoyl)[dK](Nicotinoyl)L[Lys(iPr)]P[dA]-NH2; N-terminus and C-terminus assumed) |  | 0.603 nM | subnanomolar range |  | Number of ovulating females/total number of treated females ([4]; dose 0.5 μg/rat subcutaneous): 4/5; Number of ovulating females/total number of treated females ([4]; dose 1 μg/rat subcutaneous): 5/16; Number of ovulating females/total number of treated females ([4]; dose 2.5 μg/rat subcutaneous): 2/6; Number of ovulating females/total number of treated females ([4]; dose 5 μg/rat subcutaneous): 0/11; Number of ovulating females/total number of treated females ([4]; dose 10 μg/rat subcutaneous): 0/8; 50% inhibitory dose ([4]; inhibition of ovulation, subcutaneous): lower than 1 μg/rat

Now from value to molecule, other results behind:

ED50 (dose producing 50% of ovulation) [1] | Ki [3] | IC50 range in words [3] | Total testosterone [2] | SMILES | further results
15 nanograms/rat |  |  |  | CC(C)C[C@H](NC(=O)CNC(=O)[C@H](Cc1ccc(O)cc1)NC(=O)[C@H](CO)NC(=O)[C@H](Cc1c[nH]c2ccccc12)NC(=O)[C@H](Cc1c[nH]cn1)NC(=O)[C@@H]1CCC(=O)N1)C(=O)N[C@@H](CCCNC(=N)N)C(=O)N1CCC[C@H]1C(=O)NCC(N)=O [LH-RH] | activity on testosterone secretion, in words [2]: not active
 | < 1 nM and 0.105 nM | subnanomolar range | 12.7 ± 1.9 ng/mL | CCNC(=O)[C@@H]1CCCN1C(=O)[C@H](CCCNC(=N)N)NC(=O)[C@H](CC(C)C)NC(=O)[C@@H](Cc1cn(Cc2ccccc2)cn1)NC(=O)[C@H](Cc1ccc(O)cc1)NC(=O)[C@H](CO)NC(=O)[C@H](Cc1c[nH]c2ccccc12)NC(=O)[C@H](Cc1cnc[nH]1)NC(=O)[C@@H]1CCC(=O)N1 [Histrelin] | 
1.9 nanograms/rat |  |  | 11.9 ± 1.5 ng/mL | CCNC(=O)[C@@H]1CCCN1C(=O)[C@H](CCCNC(=N)N)NC(=O)[C@H](CC(C)C)NC(=O)[C@@H](CC(C)C)NC(=O)[C@H](Cc1ccc(O)cc1)NC(=O)[C@H](CO)NC(=O)[C@H](Cc1c[nH]c2ccccc12)NC(=O)[C@H](Cc1c[nH]cn1)NC(=O)[C@@H]1CCC(=O)N1 [Leuprorelin] | 
2.9 nanograms/rat | < 1 nM and 0.141 nM | subnanomolar range | 12.1 ± 0.7 ng/mL | CC(C)C[C@H](NC(=O)[C@@H](Cc1c[nH]c2ccccc12)NC(=O)[C@H](Cc1ccc(O)cc1)NC(=O)[C@H](CO)NC(=O)[C@H](Cc1c[nH]c2ccccc12)NC(=O)[C@H](Cc1c[nH]cn1)NC(=O)[C@@H]1CCC(=O)N1)C(=O)N[C@@H](CCCNC(=N)N)C(=O)N1CCC[C@H]1C(=O)NCC(N)=O [Tryptorelin] | 
